One experiment concerns 468 kinases. Briefly: KINOMEscan scanMAX kinase selectivity panel. It counts as binding, human.
The subject of experiment [1] is more than 200 full-length kinases in Hela cell lysate. The experiment in a line: Kinobead pulldown assay in cellular lysate. The format is binding, human. Particulars: dose–response 30 μM to 1 nM.
Another experiment concerns HeLa cells. The experiment in a line: Quantitative phosphoproteomic analysis. It counts as cell-based, human. The note with it: 30 min, 100 μM (LIMKi3, TH470) or 1 mM (TH257) as printed; for Significantly regulated phosphosites: p<0.01.

Molecules are shown by their SMILES.

Consider `O=C(c1ccc(S(=O)(=O)Nc2ccccc2)cc1)N(Cc1ccccc1)Cc1cn(Cc2ccccc2)nn1` [Compound 33, N-benzyl-N-[(1-benzyl-1H-1,2,3-triazol-4-yl)methyl]-4-(phenylsulfamoyl)benzamide], for which, in the experiment on 468 kinases (selectivity profiling), the “Additional off-targets identified besides LIMK1/2” value is given as “four”.
For `CC(C)C(=O)Nc1ncc(-c2cc(C(F)F)nn2-c2c(Cl)cccc2Cl)s1` [Compound 1, reference compound], the “Hits identified in kinobead assay” value in experiment [1] was “No other hits except LIMK1 and LIMK2 were identified”. In the experiment with HeLa cells, this compound yielded a Downregulated phosphosites of 173 sites, an Upregulated phosphosites of 189 sites and a Significantly regulated phosphosites of 362 sites.
For `CC(C)C(=O)Nc1ncc(C(=O)NCCN(Cc2ccccc2)C(=O)c2ccc(S(=O)(=O)Nc3ccccc3)cc2)s1` [Compound 48, N-benzyl-N-(2-{[2-(2-methylpropanamido)-1,3-thiazol-5-yl]formamido}ethyl)-4-(phenylsulfamoyl)benzamide], in experiment [1], the “Hits identified in kinobead assay” value is “No other hits except LIMK1 and LIMK2 were identified”. In addition, in the experiment with HeLa cells, the Downregulated phosphosites stood at 193 sites, the Upregulated phosphosites came to 146 sites and the Significantly regulated phosphosites was 339 sites.
For `O=C(NCc1ccccc1)c1ccc(S(=O)(=O)NCc2ccccc2)cc1` [Compound 26, N-benzyl-4-(benzylsulfamoyl)benzamide], the “Hits identified in kinobead assay” value in experiment [1] was “No other hits except LIMK1 and LIMK2 were identified”. Moreover, the “Interaction with other kinases in KINOMEscan panel” value in the experiment on 468 kinases (screened at 1 μM, 468 kinases) is listed as “no interacting kinase”.
